In patent US10588317B2, “Isoxazoline-substituted benzamides and analogues as insecticides” (priority 2015, dated 2020):

Key:
Format in all cases: in vivo
Diabrotica balteata = Diabrotica balteata (corn root worm), sprayed maize sprouts; conditions: 96 h, application rate 200 ppm, L2 larvae, 4 days after infestation, read-out: effect in at least one of the two categories (mortality or growth inhibition)
Summary of the method: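 Read-out at 4 days post-infestation: mortality and growth inhibition relative to untreated samples. Test solutions (200 ppm, from DMSO stocks) were sprayed onto agar-held maize sprouts, which after drying received 6–10 L2 larvae per well.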

Euschistus heros = Euschistus heros (neotropical brown stink bug), sprayed soybean leaves; conditions: 120 h, application rate 200 ppm, N2 nymphs, 5 days after infestation, read-out: effect in at least one of the two categories (mortality or growth inhibition)
Summary of the method: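 Scored 5 days post-infestation versus untreated controls, for both mortality and growth inhibition: N2 nymphs placed on agar-mounted soybean leaves previously sprayed at 200 ppm with aqueous test solutions from DMSO stocks and left to dry.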

Myzus persicae = Myzus persicae (green peach aphid): feeding/contact activity; conditions: 144 h, application rate 200 ppm, aphid population of mixed ages, 6 days after infestation, read-out: mortality
Protocol: Sunflower leaf discs were placed onto agar in a 24-well microtiter plate and sprayed with aqueous test solutions prepared from 10'000 ppm DMSO stock solutions. After drying, the leaf discs were infested with an aphid population of mixed ages. The samples were assessed for mortality 6 days after infestation.

Plutella xylostella = Plutella xylostella (diamond back moth), artificial diet; conditions: 120 h, application rate 200 ppm, L2 larvae, 5 days after infestation, read-out: effect in at least one of the two categories (mortality or growth inhibition)
Summary of the method: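 L2 larvae (10-15 per well) fed on compound-treated, dried artificial diet; test solutions diluted in water from 10'000 ppm DMSO stocks. Readout 5 days post-infestation as mortality or growth inhibition versus untreated diet, with at least 80% effect at 200 ppm as threshold.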

Spodoptera littoralis [1] = test: Spodoptera littoralis (Egyptian cotton leaf worm), sprayed cotton leaf discs; conditions: foliar, 72 h, application rate 200 ppm, L1 larvae, 3 days after infestation, read-out: control (mortality, anti-feeding effect, growth inhibition)
Summary of the method: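 Five first-instar larvae placed on dried cotton leaf discs (on agar) previously sprayed with aqueous dilutions of 10'000 ppm DMSO stocks. Scored at 3 days against untreated discs for mortality, feeding inhibition and growth inhibition; any category above untreated counts as control.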

Spodoptera littoralis [2] = test: Spodoptera littoralis (Egyptian cotton leaf worm), uptake by lettuce roots from agar; conditions: 144 h, read-out: effect in at least one of the three categories (mortality, anti-feeding, or growth inhibition);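 also: 12.5 ppm test rate in agar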
Summary of the method: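 Systemic test: Spodoptera eggs placed on lettuce leaves from seedlings raised 7 days on agar containing the compound (diluted from 10'000 ppm DMSO stock). Six days after infestation, larvae scored against untreated controls for mortality, feeding deterrence and growth inhibition.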

Tetranychus urticae = Tetranychus urticae (two-spotted spider mite): feeding/contact activity; conditions: 192 h, application rate 200 ppm, mixed population (mobile stages), 8 days after infestation, read-out: mortality
Protocol: Bean leaf discs on agar in 24-well microtiter plates were sprayed with aqueous test solutions prepared from 10'000 ppm DMSO stock solutions. After drying the leaf discs were infested with a mite population of mixed ages. The samples were assessed for mortality on mixed population (mobile stages) 8 days after infestation.

Thrips tabaci = Thrips tabaci (onion thrips): feeding/contact activity; conditions: 144 h, application rate 200 ppm, Thrips population of mixed ages, 6 days after infestation, read-out: mortality
Protocol: Sunflower leaf discs were placed on agar in 24-well microtiter plates and sprayed with aqueous test solutions prepared from 10'000 ppm DMSO stock solutions. After drying the leaf discs were infested with a Thrips population of mixed ages. The samples were assessed for mortality 6 days after infestation.

C#CCNS(=O)(=O)N1C[C@@H](NC(=O)c2ccc(C3=NO[C@@](c4cc(Cl)cc(Cl)c4)(C(F)(F)F)C3)cc2Cl)CO1 [Compound A158]
≥ 80%: percent effect (mortality or growth inhibition) at 200 ppm (Diabrotica balteata) | percent effect (mortality or growth inhibition) at 200 ppm (Euschistus heros) | mortality at 200 ppm (Myzus persicae) | percent effect (mortality or growth inhibition) at 200 ppm (Plutella xylostella) | mortality at 200 ppm (Spodoptera littoralis [1]) | percent control (mortality, anti-feedant effect or growth inhibition) at 12.5 ppm (Spodoptera littoralis [2]) | mortality at 200 ppm (Tetranychus urticae) | mortality at 200 ppm (Thrips tabaci)

CCS(=O)(=O)N1C[C@@H](NC(=O)c2ccc(C3=NO[C@@](c4cc(Cl)cc(C(F)(F)F)c4)(C(F)(F)F)C3)cc2Cl)CO1 [Compound A122]
≥ 80%: percent effect (mortality or growth inhibition) at 200 ppm (Diabrotica balteata) | percent effect (mortality or growth inhibition) at 200 ppm (Euschistus heros) | mortality at 200 ppm (Myzus persicae) | percent effect (mortality or growth inhibition) at 200 ppm (Plutella xylostella) | mortality at 200 ppm (Spodoptera littoralis [1]) | percent control (mortality, anti-feedant effect or growth inhibition) at 12.5 ppm (Spodoptera littoralis [2]) | mortality at 200 ppm (Tetranychus urticae) | mortality at 200 ppm (Thrips tabaci)

Cc1cc(C2=NO[C@@](c3cc(Cl)c(F)c(Cl)c3)(C(F)(F)F)C2)ccc1C(=O)N[C@@H]1CON(S(C)(=O)=O)C1 (single isomer, unassigned) [Compound A12]
≥ 80%: percent effect (mortality or growth inhibition) at 200 ppm (Diabrotica balteata) | percent effect (mortality or growth inhibition) at 200 ppm (Euschistus heros) | mortality at 200 ppm (Myzus persicae) | percent effect (mortality or growth inhibition) at 200 ppm (Plutella xylostella) | mortality at 200 ppm (Spodoptera littoralis [1]) | percent control (mortality, anti-feedant effect or growth inhibition) at 12.5 ppm (Spodoptera littoralis [2]) | mortality at 200 ppm (Tetranychus urticae) | mortality at 200 ppm (Thrips tabaci)

Cc1cc(C2=NO[C@@](c3cc(Cl)c(F)c(Cl)c3)(C(F)(F)F)C2)ccc1C(=O)NC1CON(S(=O)(=O)N(C)C)C1 (stereo partly shown) [Compound A10]
≥ 80%: percent effect (mortality or growth inhibition) at 200 ppm (Diabrotica balteata) | percent effect (mortality or growth inhibition) at 200 ppm (Euschistus heros) | mortality at 200 ppm (Myzus persicae) | percent effect (mortality or growth inhibition) at 200 ppm (Plutella xylostella) | mortality at 200 ppm (Spodoptera littoralis [1]) | percent control (mortality, anti-feedant effect or growth inhibition) at 12.5 ppm (Spodoptera littoralis [2]) | mortality at 200 ppm (Tetranychus urticae) | mortality at 200 ppm (Thrips tabaci)

CNS(=O)(=O)N1C[C@@H](NC(=O)c2ccc(C3=NO[C@@](c4cc(Cl)c(Cl)c(Cl)c4)(C(F)(F)F)C3)cc2Cl)CO1 [Compound A126, 2-chloro-N-[(4R)-2-(methylsulfamoyl)isoxazolidin-4-yl]-4-[(5S)-5-(3,4,5-trichlorophenyl)-5-(trifluoromethyl)-4H-isoxazol-3-yl]benzamide]
≥ 80%: percent effect (mortality or growth inhibition) at 200 ppm (Diabrotica balteata) | percent effect (mortality or growth inhibition) at 200 ppm (Euschistus heros) | mortality at 200 ppm (Myzus persicae) | percent effect (mortality or growth inhibition) at 200 ppm (Plutella xylostella) | mortality at 200 ppm (Spodoptera littoralis [1]) | percent control (mortality, anti-feedant effect or growth inhibition) at 12.5 ppm (Spodoptera littoralis [2]) | mortality at 200 ppm (Tetranychus urticae) | mortality at 200 ppm (Thrips tabaci)

CCN(C)S(=O)(=O)N1C[C@@H](NC(=O)c2ccc(C3=NO[C@@](c4cc(Cl)c(Cl)c(Cl)c4)(C(F)(F)F)C3)cc2Cl)CO1 [Compound A132, 2-chloro-N-[(4R)-2-[ethyl(methyl)sulfamoyl]isoxazolidin-4-yl]-4-[(5S)-5-(3,4,5-trichlorophenyl)-5-(trifluoromethyl)-4H-isoxazol-3-yl]benzamide]
≥ 80%: percent effect (mortality or growth inhibition) at 200 ppm (Diabrotica balteata) | percent effect (mortality or growth inhibition) at 200 ppm (Euschistus heros) | mortality at 200 ppm (Myzus persicae) | percent effect (mortality or growth inhibition) at 200 ppm (Plutella xylostella) | mortality at 200 ppm (Spodoptera littoralis [1]) | percent control (mortality, anti-feedant effect or growth inhibition) at 12.5 ppm (Spodoptera littoralis [2]) | mortality at 200 ppm (Tetranychus urticae) | mortality at 200 ppm (Thrips tabaci)

CCN(C)S(=O)(=O)N1C[C@@H](NC(=O)c2ccc(C3=NO[C@@](c4cc(Cl)cc(C(F)(F)F)c4)(C(F)(F)F)C3)cc2Cl)CO1 [Compound A130, 2-chloro-4-[(5S)-5-[3-chloro-5-(trifluoromethyl)phenyl]-5-(trifluoromethyl)-4H-isoxazol-3-yl]-N-[(4R)-2-[ethyl(methyl)sulfamoyl]isoxazolidin-4-yl]benzamide]
≥ 80%: percent effect (mortality or growth inhibition) at 200 ppm (Diabrotica balteata) | percent effect (mortality or growth inhibition) at 200 ppm (Euschistus heros) | mortality at 200 ppm (Myzus persicae) | percent effect (mortality or growth inhibition) at 200 ppm (Plutella xylostella) | mortality at 200 ppm (Spodoptera littoralis [1]) | percent control (mortality, anti-feedant effect or growth inhibition) at 12.5 ppm (Spodoptera littoralis [2]) | mortality at 200 ppm (Tetranychus urticae) | mortality at 200 ppm (Thrips tabaci)

Cc1cc(C2=NO[C@@](c3cc(Cl)c(F)c(Cl)c3)(C(F)(F)F)C2)ccc1C(=O)NC1CON(S(=O)(=O)N(C)C#N)C1 (stereo partly drawn) [Compound A81, N-[2-[cyano(methyl)sulfamoyl]isoxazolidin-4-yl]-4-[(5S)-5-(3,5-dichloro-4-fluoro-phenyl)-5-(trifluoromethyl)-4H-isoxazol-3-yl]-2-methyl-benzamide]
≥ 80%: percent effect (mortality or growth inhibition) at 200 ppm (Diabrotica balteata) | percent effect (mortality or growth inhibition) at 200 ppm (Euschistus heros) | mortality at 200 ppm (Myzus persicae) | percent effect (mortality or growth inhibition) at 200 ppm (Plutella xylostella) | mortality at 200 ppm (Spodoptera littoralis [1]) | percent control (mortality, anti-feedant effect or growth inhibition) at 12.5 ppm (Spodoptera littoralis [2]) | mortality at 200 ppm (Tetranychus urticae) | mortality at 200 ppm (Thrips tabaci)

Cc1cc(C2=NO[C@@](c3cc(Cl)cc(Cl)c3)(C(F)(F)F)C2)ccc1C(=O)NC1CON(S(=O)(=O)N(C)C)C1 (stereo partly shown) [Compound A41]
≥ 80%: percent effect (mortality or growth inhibition) at 200 ppm (Diabrotica balteata) | percent effect (mortality or growth inhibition) at 200 ppm (Euschistus heros) | mortality at 200 ppm (Myzus persicae) | percent effect (mortality or growth inhibition) at 200 ppm (Plutella xylostella) | mortality at 200 ppm (Spodoptera littoralis [1]) | percent control (mortality, anti-feedant effect or growth inhibition) at 12.5 ppm (Spodoptera littoralis [2]) | mortality at 200 ppm (Tetranychus urticae) | mortality at 200 ppm (Thrips tabaci)

CS(=O)(=O)N1C[C@@H](NC(=O)c2ccc(C3=NO[C@@](c4cc(Cl)cc(Cl)c4)(C(F)(F)F)C3)cc2Cl)CO1 [Compound A116]
≥ 80%: percent effect (mortality or growth inhibition) at 200 ppm (Diabrotica balteata) | percent effect (mortality or growth inhibition) at 200 ppm (Euschistus heros) | mortality at 200 ppm (Myzus persicae) | percent effect (mortality or growth inhibition) at 200 ppm (Plutella xylostella) | mortality at 200 ppm (Spodoptera littoralis [1]) | percent control (mortality, anti-feedant effect or growth inhibition) at 12.5 ppm (Spodoptera littoralis [2]) | mortality at 200 ppm (Tetranychus urticae) | mortality at 200 ppm (Thrips tabaci)

COCCN(C)S(=O)(=O)N1CC(NC(=O)c2ccc(C3=NO[C@@](c4cc(Cl)c(Cl)c(Cl)c4)(C(F)(F)F)C3)cc2C)CO1 (stereo partly drawn) [Compound A90, N-[2-[2-methoxyethyl(methyl)sulfamoyl]isoxazolidin-4-yl]-2-methyl-4-[(5S)-5-(3,4,5-trichlorophenyl)-5-(trifluoromethyl)-4H-isoxazol-3-yl]benzamide]
≥ 80%: percent effect (mortality or growth inhibition) at 200 ppm (Diabrotica balteata) | percent effect (mortality or growth inhibition) at 200 ppm (Euschistus heros) | mortality at 200 ppm (Myzus persicae) | percent effect (mortality or growth inhibition) at 200 ppm (Plutella xylostella) | mortality at 200 ppm (Spodoptera littoralis [1]) | percent control (mortality, anti-feedant effect or growth inhibition) at 12.5 ppm (Spodoptera littoralis [2]) | mortality at 200 ppm (Tetranychus urticae) | mortality at 200 ppm (Thrips tabaci)
